Test results as given in patent US7008636B2, “2,3,5-substituted biphenyls useful in the treatment of insulin resistance and hyperglycemia” (Wyeth, priority 1998, dated 2006).

Legend:
[1] = target: T1, recombinant, human protein tyrosine phosphatase (PTP) 1B (hPTP1B) (Homo sapiens, UniProt P18031); assay: Inhibition of tri-phosphorylated insulin receptor dodecaphosphopeptide dephosphorylation by hPTP1B; format: biochemical; conditions: 50 μM IR triphosphopeptide substrate, 5 min preincubation and 5 min reaction at 37° C., malachite green-ammonium molybdate phosphate detection
T1 construct: made in house
T1 sequence (P18031 1-435): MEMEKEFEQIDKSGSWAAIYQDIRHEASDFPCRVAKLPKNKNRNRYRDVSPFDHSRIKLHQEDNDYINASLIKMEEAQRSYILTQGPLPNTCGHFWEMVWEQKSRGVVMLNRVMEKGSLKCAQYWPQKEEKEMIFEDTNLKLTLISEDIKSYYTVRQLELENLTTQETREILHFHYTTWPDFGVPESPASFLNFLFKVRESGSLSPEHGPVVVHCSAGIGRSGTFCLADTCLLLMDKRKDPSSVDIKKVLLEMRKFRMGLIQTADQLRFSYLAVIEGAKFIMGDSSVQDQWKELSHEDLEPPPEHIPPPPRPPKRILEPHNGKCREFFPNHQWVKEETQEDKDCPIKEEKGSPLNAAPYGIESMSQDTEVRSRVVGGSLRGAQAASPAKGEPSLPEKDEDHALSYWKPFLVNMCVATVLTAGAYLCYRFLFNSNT

Compound | IC50 [1] | melting point
O=C(O)COc1c(-c2cccc(Cl)c2)cc(C(=O)NCCCCCCCCOCc2ccc(Cl)cc2)cc1-c1cccc(Cl)c1 [Example 90, {3,3″-Dichloro-5′-[8-(4-chloro-benzyloxy)-octylcarbamoyl]-[1,1′;3′1″]terphenyl-2′-yloxy}acetic acid] | 100 nM | 128 to 131 °C
Cc1cc(OCCCCCCCCNC(=O)c2cc(-c3cccc(Cl)c3)c(OCC(=O)O)c(-c3cccc(Cl)c3)c2)ccc1F [Example 91, {3,3″-Dichloro-5′-[8-(4-fluoro-3-methyl-phenoxy)-octylcarbamoyl]-[1,1′;3′1″]terphenyl-2′-yloxy}acetic acid] | 313 nM | 138 to 140 °C
O=C(O)COc1c(-c2cccc(Cl)c2)cc(C(=O)NCCCCCCCCn2ccnc2)cc1-c1cccc(Cl)c1 [Example 92, [3,3″-Dichloro-5′-(8-imidazol-1-yl-octylcarbamoyl)-[1,1′;3′1″]terphenyl-2′-yloxy]acetic acid] | 471 nM | > 109 °C (dec.)
O=C(O)COc1c(-c2cccc(Cl)c2)cc(C(=O)NCCCCCCOC(=O)Nc2ccc(Oc3ccccc3)cc2)cc1-c1cccc(Cl)c1 [Example 95, {3,3″-Dichloro-5′-[6-(4-phenoxy-phenylcarbamoyloxy)-hexylcarbamoyl]-[1,1′;3′1″]terphenyl-2′-yloxy}acetic acid] | 641 nM | > 75 °C (dec.)
O=C(O)COc1c(-c2cccc(Cl)c2)cc(C(=O)NCCCCCCCCn2ccc3cc(F)ccc32)cc1-c1cccc(Cl)c1 [Example 96, {3,3″-Dichloro-5′-[8-(5-fluoro-indol-1-yl)-octylcarbamoyl]-[1,1′;3′1″]terphenyl-2′-yloxy}acetic acid] | 137 nM | 141 to 144 °C
COc1ccc2c(ccn2CCCCCCCCNC(=O)c2cc(-c3cccc(Cl)c3)c(OCC(=O)O)c(-c3cccc(Cl)c3)c2)c1 [Example 97, {3,3″-Dichloro-5′-[8-(5-methoxy-indol-1-yl)-octylcarbamoyl]-[1,1′;3′1″]terphenyl-2′-yloxy}acetic acid] | 186 nM | > 70 °C (dec.)
Cc1ccc2c(c1)cc(C)n2CCCCCCCCNC(=O)c1cc(-c2cccc(Cl)c2)c(OCC(=O)O)c(-c2cccc(Cl)c2)c1 [Example 98, {3,3″-Dichloro-5′-[8-(2,5-dimethyl-indol-1-yl)-octylcarbamoyl]-[1,1′;3′1″]-terphenyl-2′-yloxy}acetic acid] | 132 nM | > 172 °C (dec.)
COc1ccc2c(c1)cc(C)n2CCCCCCCCNC(=O)c1cc(-c2cccc(Cl)c2)c(OCC(=O)O)c(-c2cccc(Cl)c2)c1 [Example 99, {3,3″-Dichloro-5′-[8-(5-methoxy-2-methyl-indol-1-yl)-octylcarbamoyl]-[1,1′;3′1″]-terphenyl-2′-yloxy}acetic acid] | 267 nM | > 75 °C (dec.)
O=C(O)COc1c(-c2cccc(Cl)c2)cc(C(=O)NCC2(COCCCCc3ccccc3)CC2)cc1-c1cccc(Cl)c1 [Example 100, (3,3″-Dichloro-5′-{[1-(4-phenyl-butoxymethyl)-cyclopropylmethyl]-carbamoyl}-[1,1′;3′1″]terphenyl-2′-yloxy)acetic acid] | 389 nM | > 52 °C (dec.)
CC(C)(COc1c(-c2cccc(C(F)(F)F)c2)cc(C(=O)NCCCCCCCc2ccccc2)cc1-c1cccc(C(F)(F)F)c1)C(=O)O [Example 129, 2,2-Dimethyl-3-[5′-(7-phenyl-heptylcarbamoyl)-3,3″-bis-trifluoromethyl-[1,1′:3′,1″]terphenyl-2′-yloxy]-propionic acid] | 162 nM | 130 to 132 °C

Continued, values first:

IC50 [1] | melting point | Compound
1150 nM | 58 to 62 °C | Cc1cccc(-c2cc(C(=O)NCCCCCCCc3ccccc3)cc(-c3cccc(C)c3)c2OCC(=O)O)c1 [Example 145, [3,3″-Dimethyl-5′-(7-phenyl-heptylcarbamoyl)-[1,1′:3′,1″]terphenyl-2′-yloxy]acetic acid]
249 nM | 64 to 66 °C | Cc1cc(C)cc(-c2cc(C(=O)NCCCCCCCc3ccccc3)cc(-c3cc(C)cc(C)c3)c2OCCCC(=O)O)c1 [Example 148, 4-[3,5,3″,5″-Tetramethyl-5′-(7-phenyl-heptylcarbamoyl)-[1,1′:3′,1″]terphenyl-2′-yloxy]-butyric acid]
278 nM | 128 to 138 °C | CCCCCCCCCCCCNC(=O)c1cc(Br)c(OCC(=O)O)c(-c2ccccc2F)c1 [Example 156, (3-Bromo-5-dodecylcarbamoyl-2′-fluoro-biphenyl-2-yloxy)acetic acid]
246 nM | 139 to 144 °C | COc1ccc(-c2cc(C(=O)NCCCCCCCCc3ccccc3)cc(-c3cccc(C(F)(F)F)c3)c2OCC(=O)O)cc1 [Example 158, [4″-Methoxy-5′-(8-phenyl-octylcarbamoyl)-3-trifluoromethyl-[1,1′;3′,1″]terphenyl-2′-yloxy]acetic acid]
44 nM | 139 to 144 °C | CCCCCCCCCCCCNC(=O)c1cc(-c2cc(Cl)cc(Cl)c2)c(OCC(=O)O)c(-c2cc(Cl)cc(Cl)c2)c1 [Example 159, (3,5,3″,5″-Tetrachloro-5′-dodecylcarbamoyl-[1,1′;3′,1″]terphenyl-2′-yloxy)acetic acid]
54 nM | 139 to 149 °C | O=C(O)COc1c(-c2cc(Cl)cc(Cl)c2)cc(C(=O)NCCCCCCCCc2ccccc2)cc1-c1cc(Cl)cc(Cl)c1 [Example 160, [3,5,3″,5″-Tetrachloro-5′-(8-phenyl-octylcarbamoyl)-[1,1′;3′,1″]terphenyl-2′-yloxy]acetic acid]
33 nM | 151 to 159 °C | O=C(O)COc1c(-c2cc(Cl)cc(Cl)c2)cc(C(=O)NCCCCCCc2ccccc2)cc1-c1cc(Cl)cc(Cl)c1 [Example 161, [3,5,3″,5″-Tetrachloro-5′-(6-phenyl-hexylcarbamoyl)-[1,1′;3′,1″]terphenyl-2′-yloxy]acetic acid]
905 nM | 87 to 89 °C | CCCCCCc1cc(-c2ccccc2)c(OCC(=O)O)c(-c2ccccc2)c1 [Example 169, (5′-Hexyl-[1,1′;3′,1″]terphenyl-2′-yloxy)acetic acid]
178 nM | 63 to 65 °C | CCCCCCCCCc1cc(-c2ccccc2)c(OCC(=O)O)c(-c2ccccc2)c1 [Example 170, (5′-Nonyl-[1,1′;3′,1″]terphenyl-2′-yloxy)acetic acid]
28 nM | 89 to 90 °C | CCCCCCCCCCCCCCOc1cc(-c2ccccc2)c(OCC(=O)O)c(-c2ccccc2)c1 [Example 173, (5′-Tetradecyloxy-[1,1′;3′,1″]terphenyl-2′-yloxy)acetic acid]
633 nM | 211 to 214 °C | O=C(O)COc1c(-c2ccccc2)cc(C(c2ccccc2)(c2ccccc2)c2ccccc2)cc1-c1ccccc1 [Example 174, (5′-Trityl-[1,1′;3′,1″]terphenyl-2′-yloxy)acetic acid]
50 nM | 154.3 to 158.2 °C | CCCCCCCCCCCCNC(=O)c1cc(-c2cccc(C(F)(F)F)c2)c(OCC(=O)O)c(-c2cccc(C(F)(F)F)c2)c1 [Example 175, (5′-Dodecylcarbamoyl-3,3″-bis-trifluoromethyl-{1,1′;3′,1″]terphenyl-2′-yloxy)-acetic acid]
336 nM | 166.5 to 168.8 °C | O=C(O)COc1c(-c2cccc(C(F)(F)F)c2)cc(C(=O)NCCCCCCc2ccccc2)cc1-c1cccc(C(F)(F)F)c1 [Example 189, [5′-(6-Phenyl-hexylcarbamoyl)-3,3″-bis-trifluoromethyl-[1,1′:3′,1″}terphenyl-2′-yloxy]-acetic acid]
217 nM | 145.4 to 150.8 °C | O=C(NCCCCCCCCc1ccccc1)c1cc(-c2cccc(C(F)(F)F)c2)c(OCCCCc2nnn[nH]2)c(-c2cccc(C(F)(F)F)c2)c1 [Example 198]
